From patent US20210315992A1, “ADJUVANT EFFECT OF THE TLR1/2 AGONIST DIPROVOCIM SYNERGIZES WITH CHECKPOINT-INHIBITING ANTIBODIES TO ELIMINATE DISEASE” (The Board of Regents of the University of Texas System, priority 2018, published 2021)

Tests used:
human TLR1/TLR2 = target: T1, human TLR1/TLR2 (Homo sapiens, UniProt O60603+Q15399); test: TNF in THP-1 cells pretreated with anti-TLR1 or anti-TLR2 antibody; format: cell-based; details: 250 pM, 4 hours; antibody 20 μg/ml, 1 hour pretreatment
T1 construct: TNF in the supernatants of human THP-1 cells pretreated with control antibody, anti-TLR1 (20 μg/ml), or anti-TLR2 (20 μg/ml); host or cells: THP-1 cells differentiated with 100 nM PMA
T1 sequence (Q15399 25-786): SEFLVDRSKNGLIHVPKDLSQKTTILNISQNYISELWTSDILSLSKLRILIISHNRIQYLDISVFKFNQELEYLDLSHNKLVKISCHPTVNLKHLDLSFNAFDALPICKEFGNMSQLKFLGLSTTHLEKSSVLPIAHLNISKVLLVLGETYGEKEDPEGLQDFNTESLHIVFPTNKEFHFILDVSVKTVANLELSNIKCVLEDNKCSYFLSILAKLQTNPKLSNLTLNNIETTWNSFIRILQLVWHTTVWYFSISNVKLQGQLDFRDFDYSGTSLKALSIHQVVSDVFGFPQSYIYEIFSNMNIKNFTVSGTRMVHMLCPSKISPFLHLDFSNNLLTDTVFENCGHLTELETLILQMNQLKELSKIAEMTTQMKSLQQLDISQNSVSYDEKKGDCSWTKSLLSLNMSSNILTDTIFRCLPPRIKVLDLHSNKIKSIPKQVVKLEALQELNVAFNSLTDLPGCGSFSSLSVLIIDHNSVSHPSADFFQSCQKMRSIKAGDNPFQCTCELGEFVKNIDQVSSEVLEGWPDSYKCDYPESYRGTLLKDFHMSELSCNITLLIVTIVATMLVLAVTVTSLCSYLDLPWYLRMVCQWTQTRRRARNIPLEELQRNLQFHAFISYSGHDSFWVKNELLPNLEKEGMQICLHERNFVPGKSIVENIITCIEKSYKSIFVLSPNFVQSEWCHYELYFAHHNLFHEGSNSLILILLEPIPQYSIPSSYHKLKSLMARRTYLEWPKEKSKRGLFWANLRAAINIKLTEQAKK
T1 sequence (O60603 21-784): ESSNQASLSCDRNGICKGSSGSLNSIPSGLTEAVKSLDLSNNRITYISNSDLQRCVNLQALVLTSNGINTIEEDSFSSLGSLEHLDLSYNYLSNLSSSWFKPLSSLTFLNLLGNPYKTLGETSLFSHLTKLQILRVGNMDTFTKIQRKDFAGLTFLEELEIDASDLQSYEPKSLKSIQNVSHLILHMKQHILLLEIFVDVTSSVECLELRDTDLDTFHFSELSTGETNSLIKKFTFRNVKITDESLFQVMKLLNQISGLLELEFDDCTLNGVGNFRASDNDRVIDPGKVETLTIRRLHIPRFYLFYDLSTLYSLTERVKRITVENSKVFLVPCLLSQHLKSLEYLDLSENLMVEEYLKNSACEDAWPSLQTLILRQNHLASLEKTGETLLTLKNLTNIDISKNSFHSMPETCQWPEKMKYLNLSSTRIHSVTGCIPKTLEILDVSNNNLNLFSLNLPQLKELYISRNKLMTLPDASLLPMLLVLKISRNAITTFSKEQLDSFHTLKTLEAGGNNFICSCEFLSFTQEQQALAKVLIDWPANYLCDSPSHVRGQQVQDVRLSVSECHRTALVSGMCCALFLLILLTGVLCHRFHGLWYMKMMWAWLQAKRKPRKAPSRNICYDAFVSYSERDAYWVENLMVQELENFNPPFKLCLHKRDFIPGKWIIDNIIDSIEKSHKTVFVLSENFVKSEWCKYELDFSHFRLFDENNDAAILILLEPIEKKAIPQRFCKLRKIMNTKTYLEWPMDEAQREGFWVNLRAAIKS
Experimental: Cells were seeded onto 96-well plates at 1×10^5 cells per well and stimulated with a Diprovocim (dissolved in DMSO, and final DMSO concentrations (0.2%) were kept constant in all experiments) for 4 h. Mouse TNF, IL-6, or IFN-β, or human TNF in the supernatants were measured by ELISA kits according to the manufacturer's instructions (eBioscience and PBL Assay Science). Pretreatment with 20 μg/ml anti-TLR1, anti-TLR2 or isotype control antibody (eBioscience) was for 1 hour. Unless otherwise indicated, mouse cells were from wild type C57BL/6J mice.

[1] = test system: MAPK and canonical NF-κB signaling; test: Western blotting of THP-1 cell lysates; format: cell-based, human; details: THP-1 cells, 5 nM
Experimental: Mouse peritoneal macrophages or human THP-1 cells (1×10^6 per well) were stimulated in 12-well plates with a Diprovocim at 500 nM for mouse cells or 5 nM for human cells for the indicated times and lysed directly in sample buffer (Sigma). Cell lysates were separated by SDS-PAGE and transferred to nitrocellulose membranes. Membranes were probed with the following antibodies: phospho-IKKα (Ser176)/IKKβ (Ser177), IκBα, phospho-p38 (Thr180/Tyr182), phospho-JNK (Thr183/Tyr185), phospho-ERK1/2 (Thr202/Tyr204) (Cell Signaling Technology) and β-Actin (Sigma).

B16-OVA melanoma = test: B16-OVA melanoma, post-tumor treatment (immunization day 3 after tumor inoculation); format: in vivo, mouse; details: post-tumor treatment
Experimental: C57BL/6J mice (n=8 mice per treatment) were injected s.c. with 2×10^5 B16-OVA melanoma cells on day 0. For pre-tumor treatment, mice were immunized i.m. with OVA (100 μg) mixed with vehicle or Diprovocim (10 mg/kg) or alum (2 mg/kg) on the same day prior to tumor injection. Mice received a booster immunization seven days later in which anti-PD-L1 (200 μg) was administered on days 3, 6 and 9 after tumor inoculation by i.p. injection. For post-tumor treatment, initial immunization was on day 3 after tumor inoculation, with a booster seven days later. Anti-PD-L1 (200 μg) was administered on days 3, 6, 9, 12, and 15 after tumor inoculation by i.p. injection. […] P values for tumor volume analysis apply to the final time point as indicated in graphs and were calculated by Student's t test. P values for survival analysis were calculated by Kaplan-Meier analysis. All results are representative of two independent studies.
For post-treatment, 10 mg/kg Diprovocim-1 or 2 mg/kg Alum with OVA (100 μg) was injected i.m. into mice on day 3 after tumor inoculation. Mice received a booster shot seven days after the first immunization. On day 3, 6, 9, 12 and 15 after tumor inoculation, mice were also injected i.p. with 200 μg anti-mPD-L1 in 100 μl saline.
Tumors were measured with a digital caliper (Fisher) and the tumor sizes were calculated using the following formula: volume=0.5×length×width^2. […]

## O=C(N[C@H]1C[C@@H]1c1ccccc1)[C@@H]1CN(C(=O)c2ccc(C(=O)N3C[C@@H](C(=O)N[C@H]4C[C@@H]4c4ccccc4)[C@H](C(=O)N[C@H]4C[C@@H]4c4ccccc4)C3)cc2)C[C@H]1C(=O)N[C@H]1C[C@@H]1c1ccccc1 [Diprovocim-1, (3S,3'S,4S,4'S)-1,1′-Terephthaloylbis(N^3,N^4-bis((1S,2R)-2-phenylcyclo-propyl)pyrrolidine-3,4-dicarboxamide)]
Human TLR1/TLR2
  effect on THP-1 cells (TNF) after TLR1 or TLR2 antibody: significantly reduced
[1]
  phosphorylation of signaling proteins and IκBα degradation: induced phosphorylation of IκKα, IKKβ, p38, JNK, and ERK, as well as degradation of IκBα
B16-OVA melanoma
  effect on tumor growth, survival rate, and survival time compared with alum: superior to that of alum
